Experimental data as given in US20250064886A1, “CARDIOVASCULAR AND CEREBROVASCULAR DRUG AND USE THEREOF” (HANGZHOU ADAMERCK PHARMLABS INC., priority 2021, published 2025).
Marks after values point to notes of the source that are not given here.

What was measured:
[1] = test system: rats with focal cerebral ischemia (MCAO)/reperfusion; assay: Therapeutic administration, cerebral ischemia-reperfusion injury MCAO/R in rats (Example 7); format: in vivo, rat; conditions: 6 mg/kg i.v. once 1 h after reperfusion
Description: Experimental method: SD rats were randomly divided into 11 groups, including pseudosurgery group, a model control group, positive control drug edaravone via intravenous injection (6 mg/kg, i.v.) group, positive control drug butylphthalide injection via intravenous injection (5 mg/kg, i.v.) group, compound (1) high-dose (24 mg/kg, i.v.), medium-dose (12 mg/kg, i.v.), low-dose (6 mg/kg, i.v.) via intravenous injection group, positive drug butylphthalide soft capsule via intragastric administration (60 mg/kg, i.g.) group, and compound via intragastric administration at (1) high-dose (60 mg/kg, i.g.), medium-dose (30 mg/kg, i.g.), low-dose (15 mg/kg, i.g.) group. A middle cerebral artery occlusion (MCAO) model for cerebral ischemia-reperfusion of male rats was prepared using the internal carotid suture-occluded method with an ischemic time of 90 min followed by reperfusion. Injection and oral administration for once were performed 1 h after reperfusion, and neurobehavioral scoring was performed on rats after 24 h to determine neurological function in rats; the cerebral infarction rate and cerebral water content of rats were determined by 2,3,5-triphenyltetrazolium chloride (TTC) staining.

[2] = test system: iron content in Erastin-induced neuronal cells; assay: Iron content (PGSK probe) in Erastin-induced neuronal cells (Example 8); format: cell-based, rat; conditions: Erastin 50 μM
Description: (§1) Experimental method: Primary neuron cells were incubated in a medium containing Erastin (final concentration of 50 μM) for 24 hours, and then incubated in a medium containing different concentrations of the test drug and Erastin (final concentration of 50 μM) for another 24 hours. After incubation, Real time PCR was used to detect mRNA expression of GPX4 in each group of cells, CCK8 assay was used to detect cell viability in each group of cells, C11-BODIPY probe method was used to detect intracellular lipid ROS levels in each group of cells, and PGSK probe method was used to detect iron content in cells.
(§2) The experimental data were expressed in means±SD, and statistical differences between groups were determined using one-way ANOVA and Tukey's test, with p-values less than 0.05 considered significant.
After incubation, the PGSK probe method was used to detect the intracellular iron content. The results were presented as Mean±SD. Compared with the control group, ***p<0.0001; Compared with the model group, #p<0.05, ##p<0.01.

[3] = test system: vascular endothelial injury induced thrombosis model in zebrafish; assay: Preventative effect on vascular endothelial injury induced thrombosis, ponatinib zebrafish model (Example 1); format: in vivo; conditions: 4.00 ng/tail injected
Description: Experimental method: 420 tails of 5 dpf wild type AB strain zebrafish were randomly selected and placed in a six-well plate, with 30 fish per well (experimental group). The fish were injected with compound (1), compound (2), compound (3), compound (4), compound (5), compound (6), compound (7), compound (8), compound (9), compound (10), and compound (11) (structural formula shown in Table 1) at a dose of 4.00 ng/tail, with positive control drug acetylsalicylic acid being administered by dissolving it in water at a concentration of 30.0 µg/mL. Normal control group (i.e. zebrafish treated with standard diluted water) and model control group were set up, with a capacity of 3 mL per well (experimental group). Except for normal control group, the remaining experimental groups were all given Punatinib by dissolving it in water to induce vascular endothelial injury induced thrombosis model in zebrafish. The zebrafish were stained with o-dianisidine after co-treatment with ponatinib and samples for a period of time under incubation conditions at 28° C.
After staining, 10 zebrafish in each group were randomly selected and photographed under the microscope, and the intensity of cardiac erythrocyte staining in zebrafish was analyzed using NIS-Elements D 3.20 advanced image-processing software, and the samples were evaluated for the preventative effect on vascular endothelial injury induced thrombosis by the statistical results of cardiac erythrocyte staining intensity.
The preventative effect on thrombosis is calculated as follows: […]
Statistical analysis was performed using SPSS software, and p<0.05 indicates significant differences

[4] = test system: lipid ROS levels in Erastin-induced nerve cells; assay: Lipid ROS levels (C11-BODIPY probe) in Erastin-induced nerve cells (Example 8); format: cell-based, rat; conditions: Erastin 50 μM
Description: as §1, §2
After incubation, the C11-BODIPY probe method was used to detect the lipid ROS levels in each group of cells. The results were presented as Mean±SD. Compared with the control group, ***p<0.0001; compared with the model group, #p<0.05, ##p<0.01.

[5] = test system: GPX4 mRNA; assay: GPX4 mRNA expression (real time PCR) in Erastin-induced neuronal cells (Example 8); format: cell-based, rat; conditions: Erastin 50 μM
Description: as §1, §2
After incubation, real time PCR was used to detect the mRNA expression of GPX4 in each group of cells. The results were presented as Mean±SD. Compared with the control group, ***p<0.0001; Compared with the model group, #p<0.05, […].

[6] = test system: Erastin-induced neuronal cells; assay: Cell viability (CCK8) of Erastin-induced neuronal cells (Example 8); format: cell-based, rat; conditions: Erastin 50 μM
Description: as §1, §2
After incubation, the CCK8 experiment was used to detect the cell viability of each group of cells. The results were presented as Mean±SD. Compared with control group, ***p<0.0001. Compared with model control group, ^#P<0.05, ^##P<0.01.

[7] = test system: vascular inflammation in high-glucose and high-fat zebrafish; assay: Regressive effect on vascular inflammation in high-glucose and high-fat zebrafish (Example 9); format: in vivo
Description: Experimental method: 360 tails of 5 dpf macrophage fluorescent zebrafish were randomly selected and placed in beakers with 30 tails in each beaker, compound (1), compound (3), and compound (5) were given intravenously, and the positive control group was given atorvastatin calcium by dissolving it in water at a concentration of 30 μg/mL, while the normal control group (fish farming water-treated zebrafish) and the model control group were set up, and the volume of each beaker (experimental group) was 25 mL. Except for the normal control group, all other groups were given high-lipids and high-sucrose feed by dissolving it in water. Compound (1), compound (3) and compound (5) group were co-treated with high-lipids and high-sucrose feed for 30 h. The treatment was carried out up to 9 dpf, and 10 zebrafish were randomly selected from each experimental group to collect the intensity of the macrophage fluorescence within the tail vein and around the tail vein of the zebrafish under fluorescence microscope, and the results of the statistical analysis were used to evaluate the regressive effect of compound (1), compound (3), compound (5) on zebrafish vascular inflammation in the high sugar and high fat model.

Question: Which results are given for `CC1=NN(c2ccccc2)C(=O)C1` [Edaravone, edaravone, reference compound]?
Answer: Behavioral score [1]: 1.62 ± 0.51; Cerebral water content (%) [1]: 79.81 ± 1.03 %; Cerebral infarction rate (%) ([1]; after 24 h, mean ± SD, n = 8): 10.23 ± 7.87 %

Question: For `CC(=O)N[C@H](CSCC1OC2OC3C(CSC[C@@H](NC(C)=O)C(=O)[O-])OC(OC4C(CSC[C@@H](NC(C)=O)C(=O)[O-])OC(OC5C(CSC[C@@H](NC(C)=O)C(=O)[O-])OC(OC6C(CSC[C@@H](NC(C)=O)C(=O)[O-])OC(OC7C(CSC[C@@H](NC(C)=O)C(=O)[O-])OC(OC8C(CSC[C@@H](NC(C)=O)C(=O)[O-])OC(OC1C(O)C2O)C(O)C8O)C(O)C7O)C(O)C6O)C(O)C5O)C(O)C4O)C(O)C3O)C(=O)[O-].[Na+].[Na+].[Na+].[Na+].[Na+].[Na+].[Na+]` (some centres unmarked) [Compound (5)], which “Iron content (PGSK probe)” value ([2]; 1 μM, control = 100, PGSK fluorescence, weaker = more iron) is on record?
Answer: 56.75 ± 9.31^

Question: And the “Iron content (PGSK probe)” value ([2]; 2.5 μM)?
Answer: 68.32 ± 6.01^

Question: What about the “Iron content (PGSK probe)” value ([2]; 5 μM) of the same molecule?
Answer: 72.65 ± 7

Question: What about the “Iron content (PGSK probe)” value ([2]; 10 μM) of the same molecule?
Answer: 76.52 ± 7.86^#

Question: And the “Iron content (PGSK probe)” value ([2]; 20 μM)?
Answer: 80.28 ± 6.96^##

Question: What about the “Iron content (PGSK probe)” value ([2]; 40 μM) of the same molecule?
Answer: 87.37 ± 9.57^##

Question: What about the “Preventative effect on thrombosis (%)” value [3] of the same molecule?
Answer: 64%

Question: What about the “Cardiac erythrocyte staining intensity (pixels, mean ± SE)” value ([3]; n = 10) of the same molecule?
Answer: 4340 ± 255 pixels

Question: What about the “Cardiac erythrocyte staining intensity (pixels, mean ± SE)” value ([3]; n = 10, listed as compound (5)) of the same molecule?
Answer: 4340 pixels

Question: What about the “Lipid ROS levels (%)” value ([4]; 1 μM, control = 100, Mean±SD) of the same molecule?
Answer: 145.89 ± 5.33%

Question: What about the “Lipid ROS levels (%)” value ([4]; 2.5 μM) of the same molecule?
Answer: 141.47 ± 6.53%

Question: What about the “Lipid ROS levels (%)” value ([4]; 5 μM) of the same molecule?
Answer: 133.09 ± 9.69%

Question: What about the “Lipid ROS levels (%)” value ([4]; 10 μM) of the same molecule?
Answer: 128.99 ± 9.84^# %

Question: And the “Lipid ROS levels (%)” value ([4]; 20 μM)?
Answer: 122.71 ± 8.5^## %

Question: And the “Lipid ROS levels (%)” value ([4]; 40 μM)?
Answer: 114.82 ± 7.13^## %

Question: And the “Expression of GPX4 mRNA” value ([5]; 1 μM, control about 1.00, Mean±SD)?
Answer: 0.4777 ± 0.07^

Question: What about the “Expression of GPX4 mRNA” value ([5]; 2.5 μM) of the same molecule?
Answer: 0.5373 ± 0.08^

Question: What about the “Expression of GPX4 mRNA” value ([5]; 5 μM) of the same molecule?
Answer: 0.6033 ± 0.06^#

Question: And the “Expression of GPX4 mRNA” value ([5]; 10 μM)?
Answer: 0.6942 ± 0.01^##

Question: What about the “Expression of GPX4 mRNA” value ([5]; 20 μM) of the same molecule?
Answer: 0.7693 ± 0.1^##

Question: What about the “Expression of GPX4 mRNA” value ([5]; 40 μM) of the same molecule?
Answer: 0.8368 ± 0.07^##

Question: What about the “Cell viability (%)” value ([6]; 1 μM, 24 h, control = 100, Mean±SD) of the same molecule?
Answer: 58.95 ± 7.21%

Question: And the “Cell viability (%)” value ([6]; 2.5 μM)?
Answer: 62.63 ± 7.82%

Question: And the “Cell viability (%)” value ([6]; 5 μM)?
Answer: 67.38 ± 6.73%

Question: And the “Cell viability (%)” value ([6]; 10 μM)?
Answer: 73.74 ± 7.33^# %

Question: What about the “Cell viability (%)” value ([6]; 20 μM) of the same molecule?
Answer: 79.85 ± 6.34^## %

Question: What about the “Cell viability (%)” value ([6]; 40 μM) of the same molecule?
Answer: 84.2 ± 4.71^## %

Question: And the “Anti-inflammatory effect (%)” value ([7]; 27.8 ng/tail intravenous)?
Answer: 38*** %

Question: What about the “Fluorescence intensity of perivascular macrophage (pixels, Mean ± SE)” value (“Fluorescence intensity … (pixels, Mean ± SE)” for short) ([7]; 27.8 ng/tail intravenous) of the same molecule?
Answer: 113678 ± 4811 pixels

Question: And the “Anti-inflammatory effect (%)” value ([7]; 83.3 ng/tail intravenous)?
Answer: 36*** %

Question: And the “Fluorescence intensity … (pixels, Mean ± SE)” value ([7]; 83.3 ng/tail intravenous)?
Answer: 118039 ± 9198 pixels

Question: What about the “Anti-inflammatory effect (%)” value ([7]; 250 ng/tail intravenous) of the same molecule?
Answer: 37*** %

Question: What about the “Fluorescence intensity … (pixels, Mean ± SE)” value ([7]; 250 ng/tail intravenous) of the same molecule?
Answer: 115627 ± 5934 pixels

Question: Which “Anti-inflammatory effect (%)” value ([7]; 30 μg/mL in water) does the source give for `CC(C)c1c(C(=O)Nc2ccccc2)c(-c2ccccc2)c(-c2ccc(F)cc2)n1CC[C@@H](O)C[C@@H](O)CC(=O)[O-].CC(C)c1c(C(=O)Nc2ccccc2)c(-c2ccccc2)c(-c2ccc(F)cc2)n1CC[C@@H](O)C[C@@H](O)CC(=O)[O-].[Ca+2]` [Atorvastatin calcium, atorvastatin calcium, reference compound] here?
Answer: 42*** %

Question: What about the “Fluorescence intensity … (pixels, Mean ± SE)” value ([7]; 30 μg/mL in water, n = 10) of the same molecule?
Answer: 106352 ± 6663 pixels

Question: With `O=S(=O)(O)CCCCOCC1OC2OC3C(COCCCCS(=O)(=O)O)OC(OC4C(COCCCCS(=O)(=O)O)OC(OC5C(COCCCCS(=O)(=O)O)OC(OC6C(COCCCCS(=O)(=O)O)OC(OC7C(COCCCCS(=O)(=O)O)OC(OC8C(COCCCCS(=O)(=O)O)OC(OC1C(O)C2O)C(O)C8O)C(O)C7O)C(O)C6O)C(O)C5O)C(O)C4O)C(O)C3O` (centres unmarked) [Compound (11)] as the molecule, how does the “Preventative effect on thrombosis (%)” value [3] read?
Answer: 79%

Question: What about the “Cardiac erythrocyte staining intensity (pixels, mean ± SE)” value ([3]; n = 10) of the same molecule?
Answer: 4749 ± 12 pixels

Question: What about the “Cardiac erythrocyte staining intensity (pixels, mean ± SE)” value ([3]; n = 10, listed as compound (11)) of the same molecule?
Answer: 4749 pixels
